In US20230058189A1, “QUINOLIN-4-ONE AND 4(1H)-CINNOLINONE COMPOUNDS AND METHODS OF USING SAME” (Frequency Therapeutics, Inc., priority 2019, published 2023):

Tests used:
[1] = Caco-2 cell permeability assay; assay type: in vitro ADME; details: human, pH 7.4, approximate values; for efflux ratio at 2 h, 10 µM: Caco-2, Papp (B-A)/Papp (A-B); for Papp A→B at 2 h, 10 μM: Caco-2, apical to basolateral
Protocol: A Caco-2 cell permeability assay can be used for in vitro prediction of drug permeability and absorption, an important feature for a compound to be useful for methods described herein. The apparent permeability (Papp) of the compounds of the present disclosure were determined in Caco-2 cells to measure the rate of drug transport per surface area of the cell membrane. Further the efflux ratios of the compounds of the present disclosure were measured in Caco-2 cells to determine the apparent permeability coefficient in basolateral to apical direction with respect to the apparent permeability coefficient in apical to basolateral direction.
50 μL and 25 mL of cell culture medium were added to each well of the Transwell insert and reservoir, respectively. The HTS transwell plates were incubated at 37° C., 5% CO2 for 1 hour before cell seeding. Caco-2 cells were diluted to 6.86×10^5 cells/mL with culture medium and 50 μL of cell suspension were dispensed into the filter well of the 96-well HTS Transwell plate. Cells were cultivated for 14-18 days in a cell culture incubator at 37° C., 5% CO295% relative humidity. Cell culture medium was replaced every other day, beginning no later than 24 hours after initial plating.
Medium was removed from the reservoir and each Transwell insert and replaced with prewarmed fresh culture medium. Transepithelial electrical resistance (TEER) across the monolayer was measured using Millicell Epithelial Volt-Ohm measuring system (Millipore, USA). The Plate was returned to the incubator once the measurement was done. The TEER value was calculated according to the following equation: TEER measurement (ohms)×Area of membrane (cm^2)=TEER value (ohm·cm^2).
To prepare the HBSS (25 mM HEPES, pH 7.4), accurately weigh 5.958 g of HEPES and 0.35 g sodium hydrogen carbonate and add into 900 mL of pure water, then sonicate to dissolve the content. Transfer 100 mL of 10× HBSS into the solution, and place the solution on a stirrer, slowly adjust pH with sodium hydrate to 7.4, following with filtering. Add 6 μL of stock solution (10 mM) of test compound or control compound to 24 μL of DMSO into the same well to obtain 2 mM stock solutions. Transfer 3 μL of 2 mM solution into 597 μL of transport buffer in one 96 well plate to prepare the 10 μM compound working solution. Shake the plate at 1000 rpm for 10 min. The final concentration of DMSO in the incubation system was 0.5%. Metoprolol, erythromycin, and cimetidine were used as control compounds.
Assays can be conducted using Caco-2 cells to assay transport of a compound or composition For example, Caco-2 plates prepared as described above were removed from the incubator. Monolayers were washed twice with pre-warmed HBSS (25 mM HEPES, pH 7.4), then the plates were incubated at 37° C. for 30 minutes. To determine the rate of drug transport in the apical to basolateral direction, 108 μL of the working solution was added to the Transwell insert (apical compartment), and 8 μL sample was immediately transferred from the apical compartment to 72 μL transport buffer and 240 μL of acetonitrile containing IS (100 nM alprazolam, 200 nM caffeine and 100 nM tolbutamide) in a new 96-well plate as the initial donor sample (A-B). The samples were then vortexed at 1000 rpm for 10 minutes. The wells in the receiver plate (basolateral compartment) were filled with 300 μL of transport buffer. To determine the rate of drug transport in the basolateral to apical direction, 308 μL of the working solution were added to the receiver plate wells (basolateral compartment), and 8 μL sample was immediately transferred from the basolateral compartment to 72 μL transport buffer and 240 μL of acetonitrile containing IS (100 nM alprazolam, 200 nM caffeine and 100 nM tolbutamide) into a new 96-well plate as the initial donor sample (B-A), then Vortexed at 1000 rpm for 10 minutes. The Transwell insert (apical compartment) was filled with 100 μL of transport buffer. […]

Foxo-1 = Foxo-1 (Homo sapiens, UniProt Q12778); details: from Molecular Pharmacology (2010), 78(5), 961-970; approximate values; read-out: Potency Foxo-1; cited from earlier work
Chain of Foxo-1 (Q12778 whole entry, species assumed): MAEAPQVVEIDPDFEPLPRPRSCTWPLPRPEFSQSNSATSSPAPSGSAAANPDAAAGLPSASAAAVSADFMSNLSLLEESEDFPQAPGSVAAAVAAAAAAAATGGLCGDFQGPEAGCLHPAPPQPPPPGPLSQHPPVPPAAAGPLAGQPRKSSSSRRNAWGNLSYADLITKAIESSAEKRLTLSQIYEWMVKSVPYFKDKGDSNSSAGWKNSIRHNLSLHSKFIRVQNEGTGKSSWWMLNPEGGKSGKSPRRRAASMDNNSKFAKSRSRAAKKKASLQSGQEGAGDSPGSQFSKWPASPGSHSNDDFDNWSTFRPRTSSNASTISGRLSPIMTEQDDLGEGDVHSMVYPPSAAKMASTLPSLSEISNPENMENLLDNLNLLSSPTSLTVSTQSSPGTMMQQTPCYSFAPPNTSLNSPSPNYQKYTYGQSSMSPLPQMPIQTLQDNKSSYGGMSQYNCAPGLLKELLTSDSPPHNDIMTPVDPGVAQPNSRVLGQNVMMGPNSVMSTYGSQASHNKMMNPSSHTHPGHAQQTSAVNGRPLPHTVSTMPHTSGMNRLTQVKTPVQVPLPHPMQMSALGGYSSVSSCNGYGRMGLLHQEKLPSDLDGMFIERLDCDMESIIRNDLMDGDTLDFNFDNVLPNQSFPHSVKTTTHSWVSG

SMILES	efflux ratio at 2 h, 10 µM [1]	Papp A→B at 2 h, 10 μM [1]	IC50 (Foxo-1)
CCn1cc(C(=O)O)c(=O)c2c(N)c(F)c(N[C@H]3C[C@@H](c4ccccc4)C3)cc21 [Compound I-61]	0.85	0.11 ×10⁻⁶ cm/s	
CCn1cc(C(=O)O)c(=O)c2c(N)c(F)c(NC3CCc4ccccc43)cc21 (centres unmarked) [Compound I-10]	0.56	6.3 ×10⁻⁶ cm/s	
CCn1cc(C(N)=O)c(=O)c2c(N)c(F)c(NCCN[C@H]3C[C@@H]3c3ccccc3)cc21 (relative stereo) [Compound I-83]	1.3	5.1 ×10⁻⁶ cm/s	
CCn1cc(C(=O)O)c(=O)c2c(N)c(F)c(NCCc3ccccc3)cc21 [Compound I-18]	0.66	11 ×10⁻⁶ cm/s	
Nc1c(F)c(N[C@@H]2C[C@H]2c2ccccc2)c(F)c2c1c(=O)c(C(=O)O)cn2C1CC1 (relative stereo) [Compound I-32]	0.47	4.2 ×10⁻⁶ cm/s	
CCn1cc(C(=O)O)c(=O)c2c(N)cc(N[C@@H]3C[C@H]3c3ccccc3)cc21 (relative stereo) [Compound I-59]	0.58	6.4 ×10⁻⁶ cm/s	
CCn1cc(C#N)c(=O)c2c(N)c(F)c(NCCc3ccccc3)cc21 [Compound I-67]	0.24	2.2 ×10⁻⁶ cm/s	
Cn1cc(C(=O)O)c(=O)c2c(N)c(F)c(NCCN[C@@H]3C[C@H]3c3ccccc3)cc21 (relative stereo) [Compound I-86]	1.4	5 ×10⁻⁶ cm/s	
CCn1cc(C(=O)O)c(=O)c2c(N)c(F)c(NC3CC3)cc21 [Compound I-15]	0.48	38 ×10⁻⁶ cm/s	
CCn1cc(C(=O)O)c(=O)c2c(N)c(F)c(NCCN[C@@H]3C[C@]34CCc3ccccc34)cc21 (relative stereo) [Compound I-81]	0.59	5.9 ×10⁻⁶ cm/s	
CCn1cc(C(=O)O)c(=O)c2c(N)c(F)c(NC3CN(c4ccccc4)C3)cc21 [Compound I-69]	0.78	4.6 ×10⁻⁶ cm/s	
CCn1cc(C#N)c(=O)c2c(N)c(F)c(NCCN[C@@H]3C[C@H]3c3ccccc3)cc21 (relative stereo) [Compound I-84]	2.1	4.1 ×10⁻⁶ cm/s	
CCn1cc(-c2nnn[nH]2)c(=O)c2c(N)c(F)c(NCCc3ccccc3)cc21 [Compound I-68]	0.63	0.06 ×10⁻⁶ cm/s	
CCn1cc(C#N)c(=O)c2c(N)c(F)c(N[C@@H]3C[C@H]3c3ccccc3)cc21 (relative stereo) [Compound I-38]	0.75	1.6 ×10⁻⁶ cm/s	
CCn1cc(C(=O)O)c(=O)c2c(N)c(F)c(NC3Cc4ccccc4C3)cc21 [Compound I-11]	0.53	5.5 ×10⁻⁶ cm/s	
CCn1cc(C(=O)O)c(=O)c2cc(F)c(NC3CCCCC3)cc21 [Compound I-1]	0.47	31 ×10⁻⁶ cm/s	
CCn1cc(C(=O)O)c(=O)c2c(N)c(F)c(N[C@@H]3CC[C@H]3c3ccccc3)cc21 (relative stereo) [Compound I-13]	0.53	5.5 ×10⁻⁶ cm/s	
CCn1cc(C(=O)O)c(=O)c2c(N)c(F)c(NCc3ccccc3)cc21 [Compound I-17]	0.45	23 ×10⁻⁶ cm/s	
CCn1cc(C(=O)O)c(=O)c2c(N)c(F)c(NC3CCCC3)cc21 [Compound I-9]	0.56	3.4 ×10⁻⁶ cm/s	
CCn1cc(C(=O)O)c(=O)c2c(N)c(F)c(N[C@H]3CC[C@@H](N[C@@H]4C[C@H]4c4ccccc4)CC3)cc21 (relative stereo) [Compound I-28]	0.48	3.1 ×10⁻⁶ cm/s	

SMILES	efflux ratio at 2 h, 10 µM [1]	Papp A→B at 2 h, 10 μM [1]	IC50 (Foxo-1)
CCn1cc(C(=O)O)c(=O)c2c(N)c(F)c(Nc3ccccc3)cc21 [Compound I-16]	0.6	17 ×10⁻⁶ cm/s	
CCn1cc(C(=O)O)c(=O)c2c(N)c(F)c(N[C@H]3CC[C@H](N[C@@H]4C[C@H]4c4ccccc4)CC3)cc21 (relative stereo) [Compound I-27]	1.96	0.94 ×10⁻⁶ cm/s	
CCCn1cc(C(=O)O)c(=O)c2c(N)c(F)c(NCCN[C@@H]3C[C@H]3c3ccccc3)cc21 (relative stereo) [Compound I-87]	1.4	4.7 ×10⁻⁶ cm/s	
CCn1cc(C(=O)O)c(=O)c2c(N)c(F)c(N[C@@H]3CC[C@@H]3c3ccccc3)cc21 (relative stereo) [Compound I-14]	0.58	8.6 ×10⁻⁶ cm/s	
CCn1cc(C(=O)O)c(=O)c2c(N)cc(NCCCc3ccccc3)cc21 [Compound I-57]	0.4	7.1 ×10⁻⁶ cm/s	
CCn1cc(C(=O)O)c(=O)c2c(N)c(F)c(N3CCC(N[C@@H]4C[C@H]4c4ccccc4)CC3)cc21 (relative stereo) [Compound I-26]	0.85	7.9 ×10⁻⁶ cm/s	
CCn1cc(C(=O)O)c(=O)c2c(N)c(F)c(N[C@@H]3C[C@@H]3c3ccccc3)cc21 (relative stereo) [Compound I-23]	0.69	1.1 ×10⁻⁶ cm/s	
CCn1cc(C(=O)O)c(=O)c2c(N)c(F)c(NC3CC(N[C@@H]4C[C@H]4c4ccccc4)C3)cc21 (relative stereo) [Compound I-70]	1.2	2.4 ×10⁻⁶ cm/s	
CCn1cc(C(=O)O)c(=O)c2c(N)c(F)c(NC3CCCCC3)cc21 [Compound I-7]	0.32	13 ×10⁻⁶ cm/s	< 100 nM
CCn1cc(C(=O)O)c(=O)c2c(N)c(F)c(N[C@H]3C[C@H](c4ccccc4)C3)cc21 [Compound I-60]	0.5	0.32 ×10⁻⁶ cm/s	
CCn1cc(C(N)=O)c(=O)c2c(N)c(F)c(NCCc3ccccc3)cc21 [Compound I-66]	58	1.8 ×10⁻⁶ cm/s	
CCn1cc(C(=O)O)c(=O)c2c(N)c(F)c(NC3CCOCC3)cc21 [Compound I-8]	3.02	11 ×10⁻⁶ cm/s	
CCn1cc(C(=O)O)c(=O)c2c(N)c(F)c(NCCCc3ccccc3)cc21 [Compound I-19]	0.38	5.9 ×10⁻⁶ cm/s	
CCn1cc(C(=O)O)c(=O)c2c(N)c(F)c(NCCN[C@@H]3C[C@H]3c3ccccc3)cc21 (relative stereo) [Compound I-29]	0.39	9.1 ×10⁻⁶ cm/s	
CCn1cc(C(=O)O)c(=O)c2c(N)c(F)c(NC3CCC3)cc21 [Compound I-12]	0.72	21 ×10⁻⁶ cm/s	
CCn1cc(C(=O)O)c(=O)c2c(N)c(F)c(N[C@@H]3C[C@H]3c3ccccc3)cc21 (single isomer, unassigned) [Compound I-20]	0.29	6.1 ×10⁻⁶ cm/s	
CCC(CC)n1cc(C(=O)O)c(=O)c2c(C)c(F)c(NC3CCCCC3)cc21 [Compound I-3]	0.27	3.3 ×10⁻⁶ cm/s	< 100 nM
CCn1cc(C(=O)O)c(=O)c2c(N)c(F)c(N(C)CCN[C@H]3C[C@@H]3c3ccccc3)cc21 (relative stereo) [Compound I-50]	1.04	9.7 ×10⁻⁶ cm/s	
CCn1cc(C(=O)O)c(=O)c2c(N)c(F)c(Nc3ccc([C@@H]4C[C@H]4N)cc3)cc21 (relative stereo) [Compound I-62]	38	0.82 ×10⁻⁶ cm/s	
